Laboratory results from patent publication US10316017B2, “COT modulators and methods of use thereof” (Gilead Sciences, Inc., priority 2015, dated 2019).

Legend:
[1] = target: T1, human Cot catalytic domain (30-397 amino acids) (Homo sapiens, UniProt P41279); assay: High Throughput Cot Biochemical Assay (KinEASE TR-FRET); conditions: Cot biochemical HTRF (KinEASE TR-FRET) assay; read-out: IC50 HTRF
T1 construct: Purified recombinant human Cot catalytic domain (30-397 amino acids) was purchased from Cama Biosciences; purchased Cama Biosciences (so in the source)
How it was run: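 Recombinant human Cot catalytic domain (aa 30-397), 5 nM, with 1 μM STK3 peptide and 400 μM ATP in MOPS pH 7.0 buffer with MgOAc, DTT, BSA, NP-40, glycerol, 0.1% DMSO. Phosphorylated XL665-peptide detected by Eu-[…] antibody TR-FRET.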

[2] = test system: TNFα production in LPS-stimulated human monocytes; assay: Cot Monocyte TNFα Cell Based Assay; conditions: Homo sapiens, Monocyte, TNFα in LPS-stimulated human monocytes; read-out: EC50 TNF
How it was run: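 Human monocytes (5,000 cells/well) pretreated with compound for 1 hour at 37° C (0.5% DMSO), then stimulated with 50 pg/ml LPS for 4 hours. Total TNFα measured by TR-FRET after overnight antibody incubation at room temp, expressed as percent of control between unstimulated and stimulated cells.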

T1 sequence (P41279 30-397): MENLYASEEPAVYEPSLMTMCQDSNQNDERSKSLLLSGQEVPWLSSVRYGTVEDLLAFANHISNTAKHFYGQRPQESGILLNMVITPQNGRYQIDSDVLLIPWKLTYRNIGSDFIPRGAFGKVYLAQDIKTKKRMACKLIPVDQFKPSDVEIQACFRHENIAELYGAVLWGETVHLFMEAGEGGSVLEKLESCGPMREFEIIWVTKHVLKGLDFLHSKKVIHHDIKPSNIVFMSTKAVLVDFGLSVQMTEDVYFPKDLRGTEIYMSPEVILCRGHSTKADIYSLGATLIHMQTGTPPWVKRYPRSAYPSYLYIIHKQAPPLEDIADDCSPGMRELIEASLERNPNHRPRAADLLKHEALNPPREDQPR

| IC50 [1] | EC50 [2] | SMILES |
| --- | --- | --- |
| 7 nM | 109 nM | CC(C)(C)N1CCC(n2cc([C@@H](Nc3cc(Cl)c4ncc(C#N)c(Nc5cccc(Cl)c5F)c4c3)c3ccccc3)nn2)CC1 [Example 628, (S)-6-(((1-(1-(tert-butyl)piperidin-4-yl)-1H-1,2,3-triazol-4-yl)(phenyl)methyl)amino)-8-chloro-4-((3-chloro-2-fluorophenyl)amino)quinoline-3-carbonitrile] |
| 3 nM | 72 nM | CC[C@@H](Nc1c(C#N)cnc2c(Cl)cc(N[C@@H](c3ccccc3)c3cn(C4CCN(C(C)(C)C)CC4)nn3)cc12)c1ccccc1 [Example 629, 6-(((S)-(1-(1-(tert-butyl)piperidin-4-yl)-1H-1,2,3-triazol-4-yl)(phenyl)methyl)amino)-8-chloro-4-(((R)-1-phenylpropyl)amino)quinoline-3-carbonitrile] |
| 3 nM | 1630 nM | Cn1ccnc1-c1cccc([C@H](Nc2cc(Cl)c3ncc(C#N)c(Nc4ccc(F)c(Cl)c4)c3c2)c2cn(C3CCN(C(C)(C)C)CC3)nn2)c1 [Example 630, (S)-6-(((1-(1-(tert-butyl)piperidin-4-yl)-1H-1,2,3-triazol-4-yl)(3-(1-methyl-1H-imidazol-2-yl)phenyl)methyl)amino)-8-chloro-4-((3-chloro-4-fluorophenyl)amino)quinoline-3-carbonitrile] |
| 166 nM | 1080 nM | N#Cc1cnc2c(Cl)cc(N[C@@H](c3ccc(Cl)cc3)c3c[nH]nn3)cc2c1Nc1ccc(F)c(F)c1F [Example 631, (S)-8-chloro-6-(((4-chlorophenyl)(1H-1,2,3-triazol-4-yl)methyl)amino)-4-((2,3,4-trifluorophenyl)amino)quinoline-3-carbonitrile] |
| 3 nM | 163 nM | CC(C)(C)N1CCC(n2cc([C@@H](Nc3cc(Cl)c4ncc(C#N)c(Nc5ccc(F)c(Cl)c5)c4c3)c3cccc(-c4nccs4)c3)nn2)CC1 [Example 632, (S)-6-(((1-(1-(tert-butyl)piperidin-4-yl)-1H-1,2,3-triazol-4-yl)(3-(thiazol-2-yl)phenyl)methyl)amino)-8-chloro-4-((3-chloro-4-fluorophenyl)amino)quinoline-3-carbonitrile] |
| 10 nM | 1580 nM | C[C@@H](Nc1c(C#N)cnc2c(Cl)cc(N[C@@H](c3ccccc3)c3cn(C4CCN(C(C)(C)C)CC4)nn3)cc12)c1cccc(F)c1 [Example 633, 6-(((S)-(1-(1-(tert-butyl)piperidin-4-yl)-1H-1,2,3-triazol-4-yl)(phenyl)methyl)amino)-8-chloro-4-(((R)-1-(3-fluorophenyl)ethyl)amino) quinoline-3-carbonitrile] |
| 30 nM | 3090 nM | C[C@@H](Nc1c(C#N)cnc2c(Cl)cc(N[C@@H](c3ccccc3)c3cn(C4CCN(C(C)(C)C)CC4)nn3)cc12)c1ccc(F)cc1 [Example 634, 6-(((S)-(1-(1-(tert-butyl)piperidin-4-yl)-1H-1,2,3-triazol-4-yl)(phenyl)methyl)amino)-8-chloro-4-(((R)-1-(4-fluorophenyl)ethyl)amino) quinoline-3-carbonitrile] |
| 13 nM | 1080 nM | CC(C)(C)N1CCC(n2cc([C@@H](Nc3cc(Cl)c4ncc(C#N)c(NC5C6CC7CC(C6)CC5C7)c4c3)c3ccccc3)nn2)CC1 (stereo partly drawn) [Example 635, 4-(((1S,3S,5S,7S)-adamantan-2-yl)amino)-6-(((S)-(1-(1-(tert-butyl)piperidin-4-yl)-1H-1,2,3-triazol-4-yl)(phenyl)methyl)amino)-8-chloroquinoline-3-carbonitrile] |
| 143 nM | 2390 nM | CC(C)(C)N1CCC(n2cc([C@@H](Nc3cc(Cl)c4ncc(C#N)c(NC56CCC7CC(CC(C7)C5)C6)c4c3)c3ccccc3)nn2)CC1 [Example 636, 6-(((S)-(1-(1-(tert-butyl)piperidin-4-yl)-1H-1,2,3-triazol-4-yl)(phenyl)methyl)amino)-8-chloro-4-(((1R,3r,6S,8S)-tricyclo[4.3.1.13,8]undecan-3-yl)amino)quinoline-3-carbonitrile] |
| 36 nM | 1280 nM | CC(C)(C)N1CCC(n2cc([C@@H](Nc3cc(Cl)c4ncc(C#N)c(NC56CC7CC(CC(C7)C5)C6)c4c3)c3ccccc3)nn2)CC1 [Example 637, 4-(((3R,5R,7R)-adamantan-1-yl)amino)-6-(((S)-(1-(1-(tert-butyl)piperidin-4-yl)-1H-1,2,3-triazol-4-yl)(phenyl)methyl)amino)-8-chloroquinoline-3-carbonitrile] |
| > 10000 nM | 2650 nM | N#Cc1cnc2c(Cl)cc(N[C@@H](c3ccc(Cl)cc3)c3c[nH]nn3)cc2c1Nc1ccc2c(cnn2Cc2ccccc2)c1 [Example 638, (S)-4-((1-benzyl-1H-indazol-5-yl)amino)-8-chloro-6-(((4-chlorophenyl)(1H-1,2,3-triazol-4-yl)methyl)amino)quinoline-3-carbonitrile] |
| 664 nM | 1710 nM | N#Cc1cnc2c(Cl)cc(N[C@@H](c3ccc(Cl)cc3)c3c[nH]nn3)cc2c1Nc1cc(Cl)ccc1F [Example 639, (S)-8-chloro-4-((5-chloro-2-fluorophenyl)amino)-6-(((4-chlorophenyl)(1H-1,2,3-triazol-4-yl)methyl)amino)quinoline-3-carbonitrile] |
| 2340 nM | 2840 nM | N#Cc1cnc2c(Cl)cc(N[C@@H](c3ccc(Cl)cc3)c3c[nH]nn3)cc2c1Nc1c(F)cccc1F [Example 640, (S)-8-chloro-6-(((4-chlorophenyl)(1H-1,2,3-triazol-4-yl)methyl)amino)-4-((2,6-difluorophenyl)amino)quinoline-3-carbonitrile] |
| 17 nM | 383 nM | N#Cc1cnc2c(Cl)cc(NC(c3ccccc3)c3cn(C4CCNCC4)cn3)cc2c1Nc1ccc(F)c(Cl)c1 (stereo not shown) [Example 642, 8-chloro-4-((3-chloro-4-fluorophenyl)amino)-6-((phenyl (1-(piperidin-4-yl)-1H-imidazo-4-yl)methyl)amino)quinoline-3-carbonitrile] |
| 7 nM | 151 nM | CC(C)(C)N1CCC(n2cc([C@@H](Nc3cc(Cl)c4ncc(C#N)c(Nc5ccc(F)c(Cl)c5)c4c3)c3cccc(I)c3)nn2)CC1 [Example 643] |
| 132 nM | 1100 nM | N#Cc1cnc2c(Cl)cc(N[C@@H](c3ccccc3)c3c[nH]nn3)cc2c1Nc1ccc(Cl)c(Cl)c1F [Example 644, (S)-8-chloro-4-((3,4-dichloro-2-fluorophenyl)amino)-6-((phenyl(1H-1,2,3-triazol-4-yl)methyl)amino)quinoline-3-carbonitrile] |
| 2 nM | 41 nM | CC(C)(C)N1CCC(n2cc([C@@H](Nc3cc(Cl)c4ncc(C#N)c(Nc5ccc(F)c(Cl)c5)c4c3)c3cccc(C(=O)N4CC(F)(F)C4)c3)nn2)CC1 [Example 645, (S)-6-(((1-(1-(tert-butyl)piperidin-4-yl)-1H-1,2,3-triazol-4-yl)(3-(3,3-difluoroazetidine-1-carbonyl)phenyl)methyl)amino)-8-chloro-4-((3-chloro-4-fluorophenyl)amino)quinoline-3-carbonitrile] |
| 1 nM | 49 nM | CC(C)(C)N1CCC(n2cc([C@@H](Nc3cc(Cl)c4ncc(C#N)c(Nc5ccc(F)c(Cl)c5)c4c3)c3cccc(C(=O)N4CC(F)C4)c3)nn2)CC1 [Example 646, (S)-6-(((1-(1-(tert-butyl)piperidin-4-yl)-1H-1,2,3-triazol-4-yl)(3-(3-fluoroazetidine-1-carbonyl)phenyl)methyl)amino)-8-chloro-4-((3-chloro-4-fluorophenyl)amino)quinoline-3-carbonitrile] |
| 377 nM | 3240 nM | N#Cc1cnc2c(Cl)cc(N[C@@H](c3ccc(Cl)cc3)c3c[nH]nn3)cc2c1Nc1cc(F)c(F)cc1F [Example 647, (S)-8-chloro-6-(((4-chlorophenyl)(1H-1,2,3-triazol-4-yl)methyl)amino)-4-((2,4,5-trifluorophenyl)amino)quinoline-3-carbonitrile] |
| > 10000 nM | 4430 nM | N#Cc1cnc2c(Cl)cc(N[C@@H](c3ccc(Cl)cc3)c3c[nH]nn3)cc2c1Nc1ccc(OCc2ccccc2)c(Cl)c1 [Example 648, (S)-4-((4-(benzyloxy)-3-chlorophenyl)amino)-8-chloro-6-(((4-chlorophenyl)(1H-1,2,3-triazol-4-yl)methyl)amino)quinoline-3-carbonitrile] |
| 1460 nM | 2740 nM | CCOc1ccc(Nc2c(C#N)cnc3c(Cl)cc(N[C@@H](c4ccc(Cl)cc4)c4c[nH]nn4)cc23)cc1Cl [Example 649, (S)-8-chloro-4-((3-chloro-4-ethoxyphenyl)amino)-6-(((4-chlorophenyl)(1H-1,2,3-triazol-4-yl)methyl)amino)quinoline-3-carbonitrile] |
| 32 nM | 661 nM | CC(C)(C)N1CCC(n2cc([C@@H](Nc3cc(Cl)c4ncc(C#N)c(Nc5ccc(F)c(F)c5F)c4c3)c3ccc(Cl)cc3)nn2)CC1 [Example 650, (S)-6-(((1-(1-(tert-butyl)piperidin-4-yl)-1H-1,2,3-triazol-4-yl)(4-chlorophenyl)methyl)amino)-8-chloro-4-((2,3,4-trifluorophenyl)amino)quinoline-3-carbonitrile] |
| 52 nM | 10600 nM | CC(C)(C)N1CCC(n2cc([C@@H](Nc3cc(Cl)c4ncc(C#N)c(Nc5cc(F)c(F)cc5F)c4c3)c3ccc(Cl)cc3)nn2)CC1 [Example 651, (S)-6-(((1-(1-(tert-butyl)piperidin-4-yl)-1H-1,2,3-triazol-4-yl)(4-chlorophenyl)methyl)amino)-8-chloro-4-((2,4,5-trifluorophenyl)amino)quinoline-3-carbonitrile] |
